Results from US20220274980A1, “PHARMACOLOGICAL INHIBITORS OF THE ENL YEATS DOMAIN” (priority 2019, published 2022).
Where two headings read alike, the source gives them in different places.

What was measured:
[1] = molecular target: T1, ENL YEATS domain (association with H3K27cr) (Homo sapiens, UniProt Q03111); test: biochemical
T1 sequence (Q03111 1-148): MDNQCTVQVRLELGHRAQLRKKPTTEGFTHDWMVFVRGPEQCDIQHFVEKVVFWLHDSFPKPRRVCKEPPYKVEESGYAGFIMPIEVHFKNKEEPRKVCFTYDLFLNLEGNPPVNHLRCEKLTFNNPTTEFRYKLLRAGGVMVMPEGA
Procedure: (§1) Protein Production. Double stranded DNA fragments encoding the protein sequence of ENL YEATS(1-148) were synthesized (IDT DNA) for assembly-based cloning into a modified expression vector backbone derived from pET21a (Novagen). The protein was fused to a StrepII-SUMO and 6×His tag on the amino and carboxy terminus, respectively. Transformed BL21(DE3) cells (New England Biolabs) were grown at 37° C. in 2×YT growth medium to an OD600 of 0.6. Protein expression was induced at 25° C. with the addition of isopropyl-β-D-thiogalactopyranoside (IPTG) to a final concentration of 0.4 mM. The culture was harvested by centrifugation following a 20-hour incubation and subsequently purified by immobilized metal affinity chromatography. Cells were resuspended 50 mM Tris-HCl pH 8.0, 300 mM NaCl, 10% glycerol, 10 mM imidazole, 1 mM DTT containing Complete EDTA-free protease inhibitor (Roche) and lysed by two passes through a MicroFluidizer at 10,000 psi. The lysate was clarified by centrifugation at 16,000 rpm for 30 minutes at 4° C. The supernatant was passed over NiNTA agarose (QIAGEN) and the protein was eluted in 50 mM Tris-HCl pH 8.0, 300 mM NaCl, 10% glycerol, 250 mM imidazole, 1 mM DTT. Fractions containing the ENL YEATS(1-148) fusion protein were buffer exchanged into 100 mM Tris-HCl pH 8.0, 150 mM NaCl, 1 mM EDTA, 1 mM DTT using PD10 desalting columns (GE Life Sciences). Ulp1 protease was added to cleave the StrepII-SUMO fusion and the reaction mixture was incubated overnight at 4° C. The cleavage reaction mixture was loaded onto a StrepTrap column (GE Life Sciences) and ENL YEATS(1-148) was recovered in the flow through. BRD4 BD1 was purchased from Cayman (Cat. No. 11720).
(§2) Homogenous time-resolved FRET (HTRF) histone-binding assays. Both HTRF assays were performed by combining recombinant protein and synthetic histone peptide in assay buffer (25 mM HEPES pH 7, 20 mM NaCl, 0.2% Pluronic F-127, and 0.05% BSA) with 1 nM LanthaScreen Eu-anti-His Tag antibody (ThermoFisher, Cat. No, PV5597) and 8.9 nM SureLight allophycocyanin-streptavidin (Perkin Elmer, APC-SA, Cat. No. CR130-100). ENL YEATS was used at 5 nM and BRD4 BD1 was used at 10 nM. ENL assays were performed with H3(13-32)K27cr (13.3 and 100 nM, respectively), custom synthesized at ABclonal (N-terminal biotin, C-terminal amide); BRD4 BD1 assay was performed with 13.3 nM tetra-acetylated H4 (BioVision, Cat. No. 7144-01). Once all reagents were combined (with or without peptide), 10 μL was dispensed per well into black 384-well low-volume plates (Corning, Cat. No. 3821) and drug was added by pin tool transfer (Biomek FX). Assays were incubated for 2 or more hours before measurement of HTRF signal on a PHERAstar plate reader (BMG Labtech; simultaneous dual emission; excitation=337 nm, emission 1=665 nm, emission 2=620 nm). HTRF signal (ratio of emission 1 to emission 2) from vehicle-treated wells (maximum signal) and no-peptide-control wells (minimum signal) were used to calculate percent inhibition for drug-treated wells.

BRD4 bromodomain 1 (BD1) = molecular target: T2, BRD4 bromodomain 1 (BD1) (Homo sapiens, UniProt O60885); test: BRD4 (BD1)-H4 tetra-acetylated HTRF histone-binding assay
T2 construct: Selectivity against BRD4 bromodomain 1 (BD1), measured by HTRF; His; purchased Cayman 11720
Procedure: as §1, §2

[2] = ENL (YEATS)-H3K27cr HTRF (IC50, μM), Table 1
[3] = ENL (YEATS)-H3K27cr HTRF (IC50, μM), Table 2
[4] = read-out: ENL (YEATS)-H3K27cr HTRF (IC50), Table 1

IC50 [1, 2] [µM]	IC50 [1, 3] [µM]	IC50 (BRD4 bromodomain 1 (BD1); Table 1) [µM]	IC50 (BRD4 bromodomain 1 (BD1); Table 2) [µM]	IC50 [1, 4] [µM]	IC50 ([1]; read-out: ENL (YEATS)-H3K27cr HTRF (IC50), Table 2) [µM]	SMILES
4	4	> 50	> 50			CC(C)NC(=O)c1ccc2nc(-c3ccccc3)cn2c1 [Compound 1]
5	5					CCc1ccc(-c2cn3cc(C(=O)NC4CC4)ccc3n2)cc1 [Compound 28]
6	6					O=C(NCC1CC1)c1ccc2nc(-c3ccccc3)cn2c1 [Compound 29]
6	6					CC(NC(=O)c1ccc2nc(-c3ccccc3)cn2c1)c1ccccn1 (stereo not drawn) [Compound 30]
7	7					O=C(NC1CCC(O)CC1)c1ccc2nc(-c3ccccc3)cn2c1 (stereo not drawn) [Compound 31]
7	7					O=C(NC1CCC(O)CC1)c1ccc2nc(-c3ccc(F)cc3)cn2c1 (stereo not drawn) [Compound 32]
9	9					O=C(NC1CC1)c1ccc2nc(-c3ccccc3)cn2c1 [Compound 33]
10	10					Cc1ccc(-c2cn3cc(C(=O)NC(C)c4cccnc4)ccc3n2)cc1 (stereo not drawn) [Compound 35]
3.7	3.7	> 50	> 50			CC(C)NC(=O)c1ccc2nc(-c3cccc([N+](=O)[O-])c3)cn2c1 [Compound 36]
2.8	2.8	> 50	> 50			CC(C)NC(=O)c1ccc2nc(-c3ccc([N+](=O)[O-])cc3)cn2c1 [Compound 37]
10.7	10.7	> 50	> 50			CC(C)NC(=O)c1ccc2nc(-c3cccc(N)c3)cn2c1 [Compound 38]
7.8	7.8	> 50	> 50			CC(C)NC(=O)c1ccc2nc(-c3ccc(N)cc3)cn2c1 [Compound 39]
		> 50	> 50	3.6		CC(C)NC(=O)c1ccc2nc(-c3cccc(N=S(=O)(F)F)c3)cn2c1 [Compound 40, (3-(6-(isopropylcarbamoyl)imidazo[1,2-a]pyridin-2-yl)phenyl)sulfurimidoyl difluoride]
		> 50	> 50		13	CC(C)NC(=O)c1ccc2nc(-c3ccc(N=S(=O)(F)F)cc3)cn2c1 [Compound 41, (4-(6-(isopropylcarbamoyl)imidazo[1,2-a]pyridin-2-yl)phenyl)sulfurimidoyl difluoride]
0.55	0.55	> 50	> 50			CC(C)NC(=O)c1ccc2nc(-c3cccc(NS(=O)(=O)NCCOCCO)c3)cn2c1 [Compound 42]
0.47	0.47					CC(C)NC(=O)c1ccc2nc(-c3cccc(NS(=O)(=O)NCCCCO)c3)cn2c1 [Compound 43]
0.56	0.56	> 50	> 50			CC(C)NC(=O)c1ccc2nc(-c3cccc(NS(=O)(=O)NCCCO)c3)cn2c1 [Compound 44]
0.55	0.55	> 50	> 50			CC(C)NC(=O)c1ccc2nc(-c3cccc(NS(=O)(=O)NCCCN4CCOCC4)c3)cn2c1 [Compound 45]
0.37	0.37	> 50	> 50			CC(C)NC(=O)c1ccc2nc(-c3cccc(NS(=O)(=O)NCc4ccc(O)cc4)c3)cn2c1 [Compound 47]
0.51	0.51	> 50	> 50			CC(C)NC(=O)c1ccc2nc(-c3cccc(NS(=O)(=O)NCCc4ccc(S(N)(=O)=O)cc4)c3)cn2c1 [Compound 48]

IC50 [1, 2] [µM]	IC50 [1, 3] [µM]	IC50 (BRD4 bromodomain 1 (BD1); Table 1) [µM]	IC50 (BRD4 bromodomain 1 (BD1); Table 2) [µM]	IC50 [1, 4] [µM]	IC50 ([1]; read-out: ENL (YEATS)-H3K27cr HTRF (IC50), Table 2) [µM]	SMILES
1.36	1.36	> 50	> 50			CC(C)NC(=O)c1ccc2nc(-c3cccc(NS(=O)(=O)NCCc4cccs4)c3)cn2c1 [Compound 49]
0.52	0.52	> 50	> 50			COc1ccc(CNS(=O)(=O)Nc2cccc(-c3cn4cc(C(=O)NC(C)C)ccc4n3)c2)c(OC)c1 [Compound 50]
1.02	1.02	> 50	> 50			CC(C)NC(=O)c1ccc2nc(-c3cccc(NS(=O)(=O)NCc4ccc(F)cc4)c3)cn2c1 [Compound 51]
0.39	0.39	> 50	> 50			CNS(=O)(=O)Nc1cccc(-c2cn3cc(C(=O)NC(C)C)ccc3n2)c1 [Compound 52]
0.88	0.88	> 50	> 50			CC(C)NC(=O)c1ccc2nc(-c3cccc(NS(=O)(=O)NCCCN4CCCC4=O)c3)cn2c1 [Compound 53]
0.87	0.87	> 50	> 50			COC(=O)[C@@H](Cc1c[nH]c2ccccc12)NS(=O)(=O)Nc1cccc(-c2cn3cc(C(=O)NC(C)C)ccc3n2)c1 [Compound 54]
0.95	0.95	> 50	> 50			COC(=O)[C@H]1CCCN1S(=O)(F)=Nc1cccc(-c2cn3cc(C(=O)NC(C)C)ccc3n2)c1 (stereo partly drawn) [Compound 55]
0.52	0.52	> 50	> 50			CC(C)NC(=O)c1ccc2nc(-c3cccc(NS(=O)(=O)NCCC(N)=O)c3)cn2c1 [Compound 56]
0.43	0.43	> 50	> 50			CC(C)NC(=O)c1ccc2nc(-c3cccc(NS(=O)(=O)NCCO)c3)cn2c1 [Compound 57]
0.32	0.32	> 50	> 50			CC(C)NC(=O)c1ccc2nc(-c3cccc(NS(=O)(=O)NCCc4ccc(N)cc4)c3)cn2c1 [Compound 58]
0.55	0.55	> 50	> 50			CC(C)NC(=O)c1ccc2nc(-c3cccc(NS(=O)(=O)NCCCCCC#N)c3)cn2c1 [Compound 59]
0.69	0.69	> 50	> 50			CC(C)NC(=O)c1ccc2nc(-c3cccc(NS(=O)(=O)NCCCC(=O)O)c3)cn2c1 [Compound 60]
0.36	0.36	> 50	> 50			CC(C)NC(=O)c1ccc2nc(-c3cccc(NS(=O)(=O)NCCCCCCC(=O)O)c3)cn2c1 [Compound 61]
0.3	0.3	> 50	> 50			CC(C)NC(=O)c1ccc2nc(-c3cccc(NS(=O)(=O)NCCCCO)c3)cn2c1 [Compound 62]
7.05	7.05					Cc1cc(-c2cn3cc(C(=O)NC(C)C)ccc3n2)ccn1 [Compound 88]
16.7	16.7					CC(C)NC(=O)c1ccc2nc(-c3ccccc3C#N)cn2c1 [Compound 89]
26.6	26.6					CC(C)NC(=O)c1ccc2nc(Cn3ccnc3)cn2c1 [Compound 90]
14.8	14.8					CC(C)NC(=O)c1ccc2nc(-c3ccccn3)cn2c1 [Compound 91]
3.72	3.72					CC(C)NC(=O)c1ccc2nc(-c3ccc(CN)cc3)cn2c1 [Compound 92]
				> 50		O=C(NC1C2CC1C2)c1ccc2nc(-c3ccccc3)cn2c1 (stereo not drawn) [Compound 125]
